One experiment concerns cortical neurons. Nature of the experiment: Excitotoxicity protection in primary cortical cell cultures (MTT test). The experiment is classed as cell-based, rat. The note with it: 6 hour incubation. On the procedure:
Sixteen-day-old embryos from Wistar rats were removed and the cortex dissected. […] After four days of culture, half of the medium was replaced by minimum essential medium supplemented with 5% horse serum and 2 mM glutamine. On the same day, 10 μM 5-fluoro-2-deoxyuridine, an antimitotic agent, was added. After 7 and 11 days of culture, half of the medium was replaced by conditioned medium composed of MEM supplemented with 5% horse serum and 2 mM glutamine; this medium was passed overnight on a layer of cortical astrocytes before use.
Toxicity was measured with an MTT test.

A further experiment relates to rat brain granular cells. The note with it: for protection of brain granular cells: 6 hour incubation, MTT; for protective effect on neuron survival: neurons cotreated with PDE4 inhibitor, both excitotoxicity inducers (NMDA/serine and kainate), FIGS. 2 to 10.
The test system of experiment [1] is Amyotrophic Lateral Sclerosis (ALS). The note with it: ALS patients; cited from earlier work.
The mark [2] stands for this setting: NMDA/serine treatment (20 μM NMDA + 10 μM D-serine).
[3] abbreviates: kainate-induced toxicity (50 μM kainate).
[4] abbreviates: NMDA/serine treatment (100 μM NMDA + 10 μM D-serine).

Like-named read-outs stand apart in the source and are kept apart here.

Take `CC(=O)CCCCn1c(=O)c2c(ncn2C)n(C)c1=O` [pentoxifylline]: the “protective effect on cortical neurons” value worked out at 50% in the experiment on cortical neurons (setting [2]) and 66% with cortical neurons (setting [3]). Also, the “protection of brain granular cells” value is 43% with rat brain granular cells (setting [4]) and 33% with rat brain granular cells (setting [3]). Further, the “protective effect on neuron survival” value in the experiment on rat brain granular cells is “dose-dependent protective effect”.
In the case of `Nc1nc2ccc(OC(F)(F)F)cc2s1` [Riluzole], in experiment [1], the “improvement in the measures of muscular strength” value is reported as “does not provide improvement”.
Take `CCOC(=O)c1cnc2c(cnn2CC)c1NN=C(C)C` [etazolate]: the “protective effect on cortical neurons” value stood at 33% in the experiment with cortical neurons (setting [2]) and 25% in the experiment with cortical neurons (setting [3]). Also, the “protection of brain granular cells” value is listed as 60% in the experiment on rat brain granular cells (setting [4]) and 57% in the experiment on rat brain granular cells (setting [3]). Moreover, the “protective effect on neuron survival” value in the experiment with rat brain granular cells is on record as “dose-dependent protective effect”.

(Values after patent publication US20050043319A1, “Molecular target of neurotoxicity” (EXONHIT THERAPEUTICS SA, priority 2001, published 2005).)
